For assay [1], the system named is taste bud cells in porcine taste tissue. In words: Multiphoton fluorescence intensity imaging of stimulated porcine taste tissue in flowing perfusing medium. The format is cell-based.
Procedure: Two papillae in close proximity to one another were loaded in this manner. The papillae were extracted from the larger piece of tissue and placed into the open chamber configuration (this work was done prior to that using the closed, gasketed chamber). The tissue was repeatedly stimulated with 20 mmol/L citric acid using the 1.0 mL/min flow rate and 1.0 mL sample loop, switched to the load position as time series data acquisition began. The imaging parameters were as follows: 400 Hz galvo scan rate, 2× zoom with 63× objective, 256×256 pixel image format, 2× frame average, 810 nm laser at 36%, and 0.5 Hz frame scan rate. The tissue was received at approximately 8:00 am, transported in oxygenated Tyrode's solution to the lab, loaded at approximately 10:00 am and imaged at approximately 11:00 am. Cells from two adjacent taste buds within the second papilla were imaged in xyzt mode at a depth of approximately 35 micrometers. […] The time series data were processed using the alignment tools development to address the tissue movement issues. […] However, the movement in this case was primarily in the x-y plane, and therefore the alignment algorithm provided sufficient alignment. […] However, the relative difference in emission and differences in slope due to photobleaching makes comparison between cells difficult. […]
Assay [2] has as its system taste cells in porcine taste tissue (fungiform papilla taste bud). Briefly: Multiphoton fluorescence lifetime imaging (MP-FLIM) of stimulated porcine taste tissue in static bath. As to conditions: for response of taste cells to stimuli (calcium green lifetime imaging): bulk addition: 0.5 mL of 25-micromolar cycloheximide, then 0.5 mL of 1-millimolar sucralose, in deionized water. In kind it is cell-based. The source says:
Fresh porcine taste tissue was procured in the prescribed manner from a local slaughterhouse and transported, after removal from the tongue, in chilled, oxygenated Tyrode's solution to the preparation laboratory. The tissue was affixed to a coated Petri dish and taste buds iontophoretically loaded (1.0 microampere) with calcium green dextran dye (1 mmol/L in DI water) via a drawn capillary pipette. Several taste pores were loaded on a papilla, with several papillae loaded overall, providing 3-5 taste buds loaded with dye. The tissue was mounted in a chamber and placed onto the microscope stage. The sample was imaged using the 63× water-dipping objective, 60% laser power at 810-nm excitation, in xzy mode (256×256 pixels) in order to image the taste bud and surface features at once in a longitudinal section. The photomultiplier tube gain on the FLIM system was set to 85% and the initial Leica settings (non-optimized) were used to capture FLIM images of the tissue over a 10-15 minute time course.
The same field of view was then imaged using the multiphoton lifetime imaging capability of the instrument. The optical conditions for lifetime mage collection are identical to intensity-based imaging, except that in photon counting mode the collection requires 30 seconds in this case for adequate signal to noise. The lifetimes were calculated by a double exponential fit of the decay curves and color-coded based on average lifetime per pixel. Red values are shorter lifetimes in this case. […] The shortest lifetime evident in this image is associated with the apical end of the taste cell directly below the pore. At rest, the average lifetime for all of the cells in the field of view is 1,634 picoseconds. The short lifetime component of the fit was set to 350 picoseconds, an estimate of the short lifetime component based on initial calcium calibrations in order to facilitate rapid fitting of the data for comparison.
The taste bud was exposed to several gross stimuli: cycloheximide and sucralose in deionized water. The purpose of this stimulus experiment was to determine if the bud would remain viable during the time course of a stimulus and if possible, to determine the presence of a gross response via lifetime imaging. The stimulants were applied via bulk addition to the chamber holding the tissue: 0.5 mL of 25-micromolar cycloheximide was first added after removal of 1 mL buffer; 0.5 mL of 1 -millimolar sucralose added after the cycloheximide stimulus and removal of additional 1 mL buffer. The MP-FLIM image data were collected at approximately 1-minute intervals using the same optical and exposure conditions used to generate the resting image described above. […]

A short description of assay [3]: Calcium green-1 dextran dissociation constant from MP-FLIM lifetime and intensity data in CaEGTA calcium buffers. The format is binding. How it is done:
Calcium buffers (CaEGTA) and calcium green-1 dextran (CaGD) were purchased from Molecular Probes. The calcium buffers provide free Ca^+2 over a nanomolar to millimolar concentration range in a matrix closely matching the pH and ionic strength of the cytosol. The lifetimes and relative contributions of these bound and unbound decays are determined by fitting multi-exponential curves to the instrumental data. Buffer kit #2 (0-39 micromoles/L free Ca^+2) was used in this work to determine the response of calcium green dextran to low calcium concentrations. Initial work was done with Buffer kit #3, but the range of free Ca^+2 (0-1000 micromoles/L) was too high for the dye chosen. Calcium ion concentration is approximately 0.1 micromoles/L in resting cell's cytoplasm and in the increases to the micromolar range upon stimulus (Pollard, 2002).
Samples were analyzed in a random order during each experiment using the MP-FLIM system and a quartz solution cell. […] Each sample produced two full fields of view (256×256) where each image pixel contains a decay curve. As the calcium green dextran was present in bound and unbound forms, double exponential fits were performed using SPCImage (version 2.7.7238.0). The double exponential decays were calculated for each sample on the entire field of view, generating 65,536 values for each field of view. The average decay for each field of view was calculated as a sum of the per pixel lifetime values weighted by the amplitudes (contributions) of each lifetime to each pixel. Table 1 details the results for the calculation of the unbound dye fluorescence lifetime. The average τ1 from the measurements is 405.6 ps, with a sample standard variance of approximately 1.0 ps.
The balance of the calcium buffer data were analyzed using the SPCImage software under similar conditions as given in Table 1, with the exception that the short lifetime was fixed to 405.6 ps in the model parameters settings box. In addition, the zero Ca^+2 buffer average lifetimes were recalculated using the fixed short lifetime value. Due to instabilities in the software interface, the short lifetime was designated as τ2 in the fit parameters box. A second order polynomial fit of average lifetime in picoseconds versus calcium concentration in micromoles/L for a calcium concentration range from 0 to 0.602 micromoles/L yields the relationship: τavg=−3047 c^2+4472 c+601, R^2=0.9976; RMSE=30.9 ps.
A significant reported advantage of fluorescence lifetime measurements is that the dependence of fluorescence lifetime on calcium concentration is insensitive to dye concentration provided the dye itself is at low enough concentrations so as to not buffer the calcium ion in the cell or the cuvette. In order to test this property in the calcium green dextran system, additional sample sets were made up with 2.5-micromoles/L dye and 9.9-micromoles/L dye in the buffer solutions. The variations in lifetime data and intensity data with dye concentrations are given in FIG. 2 and FIG. 3, respectively. The lifetime data appears to be invariant with dye concentration, where the average standard deviation (variation in lifetime with dye concentration at each calcium concentration) for the lifetime data on the order or 25 ps. In contrast, the intensity variability is significant, where the intensity of the fluorescence is dependent upon the calcium concentration and the dye concentration.
Finally, calcium green-1 dissociation constants were calculated for the various dye concentrations using lifetime and intensity-based data sets.

For assay [4] the following is noted: read-out: KD for calcium; cited from earlier work.

Read-outs that look alike come from different tables or passages of the source.

As for `O=C(O)CC(O)(CC(=O)O)C(=O)O` [citric acid], the “baseline corrected average fluorescence intensity per cell (intracellular calcium response)” value in assay [1] (20 mmol/L citric acid, 1.0 mL/min flow, 1.0 mL sample loop, seven cells in field of view) is “strong response to the stimulus in cell 1 with lower magnitude responses in other cells”. In addition, the “response to successive stimuli” value in assay [1] (three successive 20 mmol/L citric acid stimuli, 5 minutes artificial saliva between stimuli) is “decrease in response to subsequent stimulus”.

Consider `C[C@@H]1C[C@@H]([C@H](O)CC2CC(=O)NC(=O)C2)C(=O)[C@@H](C)C1` [cycloheximide], for which the “response of taste cells to stimuli (calcium green lifetime imaging)” value in assay [2] is recorded as “taste cells responded to the stimuli”.

Turning to `OC[C@H]1O[C@H](O[C@]2(CCl)O[C@H](CCl)[C@@H](O)[C@@H]2O)[C@H](O)[C@@H](O)[C@H]1Cl` [sucralose], the “calcium concentration surrounding the taste cells during stimulus” value in assay [2] (0.5 mL of 1-millimolar sucralose, bulk addition) is reported as “decreased”. In addition, in assay [2] (0.5 mL of 1-millimolar sucralose, bulk addition after cycloheximide stimulus, images at about 1-minute intervals), the “change of calcium green lifetime around the taste cells on stimulus” value is given as “significant shortening of the calcium green lifetime around the taste cells”. The “response of taste cells to stimuli (calcium green lifetime imaging)” value in assay [2] is given as “taste cells responded to the stimuli”.

In general, Kd refers to the concentration at which binding is half-saturated. With calcium green-1 dextran, the Kd came to 0.482 µM in assay [3] (dye concentration 2.5 micromoles/L, read-out: Kd, Intensity Data); 0.342 µM in assay [3] (dye concentration 2.5 micromoles/L, read-out: Kd, Lifetime Data); 0.52 µM in assay [3] (dye concentration 5.0 micromoles/L, read-out: Kd, Intensity Data); 0.329 µM in assay [3] (dye concentration 5.0 micromoles/L, read-out: Kd, Lifetime Data); 0.382 µM in assay [3] (dye concentration 9.9 micromoles/L, read-out: Kd, Intensity Data); 0.289 µM in assay [3] (dye concentration 9.9 micromoles/L, read-out: Kd, Lifetime Data). Moreover, in assay [4], the Kd was ~0.54 µM.

These data come from patent publication US7279338B2, “Methods for determining cellular response to stimuli” (Cargill, Incorporated, priority 2004, dated 2007).
